Measured values reported in PubChem BioAssay (NCI).
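In this assay, cells in 96-well plates receive the compound at five concentrations for 48 hours. Endpoints are linearly interpolated between the surrounding concentrations. GI50 is the concentration that inhibits growth by half. TGI marks complete inhibition of growth.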

Columns and labels:
Experiment in all cases: NCI tumour cell line growth inhibition, 48 h
[1] = tested on: HT29 colon
[2] = tested on: HOP-62 NSCLC
[3] = tested on: A549 NSCLC
[4] = tested on: NCI-H522 lung
[5] = tested on: RXF 393 renal
[6] = tested on: HCT-116 colon
[7] = tested on: SNB-75 CNS
[8] = tested on: UO-31 renal
[9] = tested on: M14 melanoma
[10] = tested on: CCRF-CEM leukemia

Structure (SMILES)	TGI [1] [µM]	TGI [2] [µM]	TGI [3] [µM]	TGI [4] [µM]	TGI [5] [µM]	TGI [6] [µM]	TGI [7] [µM]	TGI [8] [µM]	TGI [9] [µM]	TGI [10] [µM]	GI50 [2] [µM]	GI50 [3] [µM]	GI50 [4] [µM]	GI50 [5] [µM]	GI50 [10] [µM]	GI50 [6] [µM]	GI50 [7] [µM]	GI50 [8] [µM]	GI50 [9] [µM]	GI50 [1] [µM]
NCCCCCCNCc1cccc2ccccc12	> 100	> 100	> 100	> 100	> 100	> 100	> 100	> 100	34.3											
COC1OC(C)C2OC(C)(C)OC2C1OC(C)=O (stereo unspecified)	> 100	> 100	> 100	> 100	> 100	> 100			> 100	> 100										
CC12CCC3c4cc(Br)c(O)c(Br)c4CCC3C1CCC2O (stereo unspecified)	29.1		40.9		40.5	> 100	37.5	46.8	> 100	75.8										
C=CCOC(=O)C1CCC(=O)N1C(=O)C(Cl)Cl (stereo unspecified)	> 100	> 100	> 100	> 100		> 100	> 100	> 100	> 100	> 100										
O=C(/C=C/C12c3ccccc3C(c3ccccc31)C1C(=O)NC(=O)C12)c1ccc(Cl)cc1 (stereo unspecified)		3.39	10.1	3.3	2.56	2.61	2.32	2.56	3.29	> 100	1.69	2.4	1.46	1.2	1.66	1.23	1.1	1.28	1.65	
CCn1c2c(c3ccccc31)C(c1ccccc1)CC1C(=O)N(c3ccccc3)C(=O)C21 (stereo unspecified)		> 100	> 100	> 100		> 100	59.6	> 100	> 100	> 100										
COc1ccc(/C=C\c2cc(OC)c(OC)c(OC)c2)cc1OCC(=O)Nc1ccc2nc(C)sc2c1	> 100	8.85		7.06	> 100	> 100	7.37	7.5	10.4	> 100	3.09		2.28	5.06	3.41	3.57	1.55	2.41	3.38	3.31
COc1ccccc1NS(=O)(=O)c1ccc2oc(SC(C)C)nc2c1	64.1	> 100	88.6	75.7		> 100	84.3	70.3	> 100	56.1	31.2	16.3	10.2		11.9	8.35	27.4	18.4	36.1	22.2
CCN1C[C@]2(COC)[C@H](O)C[C@H](OC)[C@]34C1[C@H]([C@H](OC)[C@H]23)[C@]1(OC(C)=O)[C@H]2[C@@H](OC(=O)c3ccccc3)[C@](O)(C[C@H]24)[C@@H](OC)[C@@H]1O	> 100		> 100	> 100		> 100	> 100	> 100	> 100	> 100										
COc1ccc(N(/C=C/C(=O)C(F)(F)F)CC(=O)c2ccc(Cl)cc2)cc1	95.6	35.8	87.8	30	48.5	26.6		28.6		38.1	16.6	29.6	12.7	16.3	12.2	7.62		13.4		25
Nc1nc(=O)n([C@@H]2CS[C@H](CO)O2)cc1F	> 100	> 100	> 100	> 100	> 100	> 100		> 100	> 100	> 100	> 100	> 100	> 100	> 100	> 100	> 100		> 100	> 100	> 100
COc1cc2c(=O)n(CCN(C)C)c3c4cc5c(cc4ccc3c2cc1OC)OCO5	5.43	1.88		1.21	1.14	2.01	5.05	0.48	0.723	> 10.9	0.193		0.114	0.363	0.146	0.195	0.23	0.119	0.166	0.178
Cn1c(=O)c2[nH]cnc2n(CC(N)=O)c1=O	> 100	> 100	> 100	> 100		> 100	> 100	> 100	> 100	> 100										
COc1cc(-n2ccnc2)cc(OC)c1OC	> 100	> 100	> 100	> 100	> 100	> 100		> 100		> 100	31.9	95.1	60.6	> 100	47.6	31.9		21.4		> 100
CCN(CC)CCn1[nH]c2c3ccc(=O)cc3sc3c(NCCN)ccc1c32	6.2	2.3	14.5		3.43	2.19	3.61	52.1		0.719										
N#Cc1ccc2cc3c(cc2c1)OCO3	> 100	> 100		> 100	> 100	> 100	74.3	89.3	> 100	> 100										
Cc1cn(-c2ccc(S(C)(=O)=O)cc2)c(-c2ccc(Cl)cc2)n1	> 100	> 100	> 100	> 100		> 100	> 100	> 100	> 100	> 100	> 100	> 100	> 100		> 100	> 100	> 100	> 100	> 100	> 100
C=C(C)C(=O)O[C@@H]1C/C(C)=C\[C@H](OC(C)=O)C[C@](C)(O)/C=C2/OC(=O)C(COC(C)=O)=C21	0.687	> 100	> 23.3	0.539		1.7	16	3.26												
O=c1[nH]c(=O)n(C2CC(O)C(CO)O2)cc1C#Cc1ccc(F)cc1 (stereo unspecified)	> 100	> 100	> 100	> 100			> 100	> 100	> 100	> 100										
COC(=O)/C=c1\s/c(=C\C(=O)OC)c2ccccc12	> 100		> 100	> 100	> 100	> 100	> 100	> 100	> 100	> 100										
CCCCCCCC(=O)OCC(=O)[C@]1(O)Cc2c(O)c3c(c(O)c2[C@@H](OC2CC(N)C(O)C(C)O2)C1)C(=O)c1c(OC)cccc1C3=O (stereo partly specified)		1.74				1.09			0.634		0.162					0.0742			0.0866	
O=C1c2ccccc2C(=O)c2c(NCC3CO3)ccc(NCC3CO3)c21 (stereo unspecified)	12.8	6.96	58.8	20.1	11.8	1.21	> 100	5.13	2.57											
Clc1ccccc1C(Nc1ncccn1)Nc1ncccn1	> 100	> 100	> 100	> 100	> 100	> 100	> 100	> 100	> 100											
CCOC(=O)c1cnn2c3ccccc3n(S(=O)(=O)c3ccc(OC)cc3)c12	> 100	> 100	> 100	38.8		> 50.4		> 78.7	> 100	> 100	0.523	0.483	0.338	0.232	0.257	0.305		0.56	0.211	0.31
COc1cccc(/C(C)=N/NC(=O)CSc2nc3ccccc3c(=O)n2CCc2ccc(S(N)(=O)=O)cc2)c1	5.31	9.63	3.93	9.65	7.7		26.9	6.48	73	> 100	2.81	2.01	2.66	2.71	5.31		5.86	2.11	2.58	2.36
COC1C2c3cc4c(cc3CC(C#N)(c3ccccc32)N1C(=O)c1ccccc1)OCO4 (stereo unspecified)	> 100	> 100		> 100	> 100	> 100	> 100	> 100	> 100	> 100										
Cc1ccc(-c2nc([P+](c3ccccc3)(c3ccccc3)c3ccccc3)c(Nc3ccccc3)o2)cc1	1.45		2.87	1.15	2.34	1.22	2.54	1.73	2.08	2.28		1.15	0.259	0.926	0.445	0.265	1.23	0.421	0.655	0.344
